The test system of this test is allergic contact dermatitis (oxazolone, elicitation phase). Kind of test: Allergic contact dermatitis (ACD), oxazolone. It counts as in vivo. As to conditions: female NMRI mice, 24 h after challenge. The source says:
ii) Allergic Contact Dermatitis (ACD)
Groups of 8 female NMRI mice are sensitized on the shaved abdomen with 50 —l of oxazolone (Sigma, 2% in acetone) and challenged with 10 —l of 0.2 or 2.0% oxazolone on the inner surface of the right ear 7 days later. The low concentration of oxazolone for induction of the elicitation phase is used for testing compounds on […] whereas the high concentration is applied for […] testing. The unchallenged left ears serve as normal controls and dermatitis is evaluated from the individual differences in pinnal weight, which is taken as a measure of increase in inflammatory swelling 24 h after the challenge. Dermatitis is evaluated in test- and for comparison in control groups. The test groups are treated with the test compounds either orally (twice, 2 h and immediately before challenge), subcutaneously (immediately before challenge) or topically (30 min after challenge at the site of elicitation of the ACD); the controls are treated similarly with the vehicles alone. […] The data of the test-and the vehicle-treated control groups are statistically analysed by ANOVA followed by Dunnet T-test (normal distribution or data) or by H and U-test, respectively. […]

As to `C[C@@H]1CCN([C@H](Cc2cccc3ccccc23)C(N)=O)C(=O)[C@H](c2ccccc2)N1C(=O)Cc1ccc2ncccc2c1` [Example 3, (R)-2-[(3S,5R)-5Methyl-2-oxo-3-phenyl-4-(quinolin-6-yl-acetyl)-[1,4]diazepan-1-yl]-3-(naphthalen-1-yl)-propionamide], the “inhibiting effect in allergic contact dermatitis (pinnal weight)” value runs as follows: (applied topically at a dose of 10 mM) 50%; (p.o. at a dose of 2×3 mg/kg) 40%.

The values are drawn from US6399599B1, “Substituted 2-oxo-1,4-diazacycloalkanes” (Novartis AG, priority 1999, dated 2002).
